Test results as given in patent US20230031954A1, “TETRACYCLINE COMPOUNDS AND METHODS OF TREATMENT” (Tetraphase Phamaceuticals, Inc., priority 2016, published 2023).

Experiments:
[1] = test system: HL60 cell line; assay: Proliferation assay in HL60 cell line (CellTiterGlo, 72 hour); format: cell-based; settings: Homo sapiens, HL-60, HL60 cells
Description: (§1) Compounds 1, 2, 3a, 4a and 5 as well as certain Compound included in FIGS. 15A-15M, 16A-16F and 17A-17D were tested in the following cell lines: MOLT4 and K562. Compounds 1, 2, 3a, 4a and 5 were also tested in the cell line HL60.
(§2) The MOLT4 cell line (CRL-1582™) and K562 cell line (CCL-243™) were obtained from American Type Culture Collection (ATCC). They were grown in a T-75 flask in RPMI Medium (GIBCO, Catalog No. 11875-093) containing 10% fetal bovine serum (ATCC, Catalog No. 30-2020) and penicillin-streptomycin (ATCC, Catalog No. 30-2300) at 37° C. in a humidified, 5% CO2 incubator. The HL60 cell line (CCL-240™) was obtained from American Type Culture Collection (ATCC). They were grown in a T-75 flask in DMEM Medium (GIBCO, Catalog No. 11965-092) containing 20% fetal bovine serum (ATCC, Catalog No. 30-2020) and penicillin-streptomycin (ATCC, Catalog No. 30-2300) at 37° C. in a humidified, 5% CO2 incubator.
(§3) 50 μL of cells (8,500 cells/well) were plated in a 96-well plate and incubated overnight at 37° C. in a humidified, 5% CO2 incubator. The next day, 50 μL of medium containing 3-fold serially diluted compounds in duplicate was added to the wells such that the starting concentration of the compound in the first pair of the wells was 10 μM. After 72 hour incubation with the compound, cell viability was measured in a luminometer after the addition of 100 μL/well CellTiterGlo reagent (Promega) as recommended by the manufacturer. The IC50 values for the compounds were calculated using SoftMax software.

[2] = test system: THP-1 cells; assay: THP-1 anti-proliferation assay (Cell Titer GLO, 72 hr); format: cell-based; settings: Homo sapiens
Description: The inhibition of eukaryotic cell culture growth was established using THP-1 cells (ATCC Cat. #TIB-202), a human acute monocytic leukemia cell line. These are suspension cells. This cell-based assay for eukaryotic culture growth inhibition was performed in 384-well plate format to determine the in vitro cytotoxicity of the test compounds.
Compounds were solubilized in water. Compounds were diluted 1:2 in assay media and 1:2 serial dilutions were performed in 50:50 media:water mix. The high dose was 40 μM, 10% water final. 5 μL of compound at 5× the final concentration was dispensed to the 384 assay plate. 20 μL of THP-1 cells were added.
Compounds were plated in dose response format (10% water final concentration), followed by the addition of cells. Cells were grown and incubated with compounds in RPMI-1640 medium/pen/strep/L-glutamine/10% FBS/2-mercaptoethanol for 72 hr at 37° C. with 5% CO2. At the end of the incubation time, cells were assayed for viability using Cell Titer GLO (Promega).

[3] = test system: MV4-11 cell line; assay: MV4-11 anti-proliferation assay (CellTiterGlo, 72 hour); format: cell-based; settings: Homo sapiens, MV4-11 cells
Description: MV4-11 cell line (MV-4-11, CRL-9591™) was obtained from American Type Culture Collection (ATCC). Cells were grown in a T-75 flask in RPMI Medium (GIBCO, Catalog No. 11875-093) containing 10% fetal bovine serum (ATCC, Catalog No. 30-2020) and penicillin-streptomycin (ATCC, Catalog No. 30-2300) at 37° C. in a humidified, 5% CO2 incubator.
as §3, with “(10,000” for “(8,500”

[4] = test system: K562 cell line; assay: Proliferation assay in K562 cell line (CellTiterGlo, 72 hour); format: cell-based; settings: Homo sapiens, K562 cells
Description: as §1, §2, §3

[5] = test system: MOLT4 cell line; assay: Proliferation assay in MOLT4 cell line (CellTiterGlo, 72 hour); format: cell-based; settings: Homo sapiens, MOLT-4, MOLT4 cells
Description: as §1, §2, §3

[6] = test system: subcutaneous MV4-11 leukemia model; assay: MV4-11 xenografts: in vivo anti-tumor efficacy in CB17 SCID mice; design: species or system mouse; settings: for tumor response: dosed at maximum tolerated dose, cytarabine 100 mg/kg I.P. QD, tigecycline 50 mg/kg I.P. BID
Description: The in vivo anti-tumor efficacy of Compounds 3a, 4a and 5 in the subcutaneous MV4-11 leukemia model in CB17 SCID mice was tested.
The MV4-11 cells (ATCC-CRL-9591) were maintained in vitro as a suspension culture at a density of 0.2-1.5×10^6 cells/ml in RPMI1640 medium supplemented with 10% heat inactivated fetal bovine serum, 100 U/ml penicillin and 100 μg/ml streptomycin at 37° C. in an atmosphere of 5% CO2 in air. The tumor cells were routinely subcultured twice weekly. The cells growing in an exponential growth phase were harvested and counted for tumor inoculation.
CB17 SCID, female, 6-8 weeks, weighing approximately 18-22 g.
Each mouse was inoculated subcutaneously at the right flank with MV4-11 tumor cells (10×10^6) in 0.2 ml of PBS (with Matrigel 1:1) for tumor development. The animals were randomized and treatment was started when the average tumor volume reached approximately 150-200 mm^3 for the efficacy study. The test article administration and the animal numbers in each group are shown below.
The major endpoint monitored was tumor growth delay or cure. Tumor sizes were measured twice weekly in two dimensions using a caliper, and the volume expressed in mm^3 using the formula: V=0.5 a×b^2 where a and b are the long and short diameters of the tumor, respectively. The tumor sizes were then used for the calculations of both T-C and T/C values. T-C is calculated with T as the median time (in days) required for the treatment group tumors to reach a predetermined size (e.g., 1,000 mm^3), and C is the median time (in days) for the control group tumors to reach the same size. […]
TGI was calculated for each group using the formula: TGI (%)=[1−(Ti−T0)/(Vi−V0)]×100; Ti is the average tumor volume of a treatment group on a given day, T0 is the average tumor volume of the treatment group on the first day of treatment, Vi is the average tumor volume of the vehicle control group on the same day with Ti, and V0 is the average tumor volume of the vehicle group on the first day of treatment.

[7] = test system: AML ex-vivo bone marrow samples; assay: Antiproliferative activity against 15 AML ex-vivo bone marrow samples (Vivia's Native Environment cell depletion assay); format: cell-based, human; settings: 48 hours post drug exposure
Description: Antiproliferative activity of Compound 3a and cytarabine was measured against 15 AML ex-vivo bone marrow samples (including two cytarabine-resistant samples). The assay used was Vivia's Native Environment cell depletion assay. An outline of the study is below: • Five different concentrations of each drug was used as a monotherapy • The incubation time point for measurement was 48 hours post drug exposure The results are shown graphically in FIG. 6.

[8] = test system: mitochondrial protein synthesis; assay: Intact isolated rat heart mitochondrial protein synthesis assay ([S35]-methionine incorporation); format: biochemical; settings: isolated rat heart mitochondria, 0.15 to 40 μM; read-out: dose-response curve IC50, mitochondrial protein synthesis
Description: The effect of Compound 3a on mitochondrial protein synthesis was determined using an intact isolated rat heart mitochondrial protein synthesis assay previously described [See, 1, 2 below]. Intact, highly coupled mitochondria isolated from normal rat hearts were incubated in an incubation medium containing [S^35]-methionine. The compounds were diluted to generate a final dose-response curve from 0.15 to 40 μM. The rate of incorporation of [S^35]-methionine into protein was measured at 20, 40, and 60 minutes of incubation for each sample using a filter paper disc assay and expressed as pmol methionine incorporated per mg mitochondrial protein as described [1, 2, 3 below]. The time course data for control and all drug concentrations were nearly linear. The slope of each time-course data plot is calculated as the least squares best fit line through zero and the three time points for each sample. The rate of protein synthesis varies modestly with each mitochondrial preparation (mean and SEM=20.3+/−2.4 pm/mg protein). To normalize for this variability, the rates were expressed as a percent of the rate of the control line for each preparation of mitochondria.
Each experiment was repeated three times.
Dose-response curves were obtained by expressing the percent of control obtained for each concentration of Compound 3a against the concentration of Compound 3a. […]

Row | IC50 [1] [µM] | IC50 [2] [µM] | IC50 [3] [µM] | IC50 [4] [µM] | IC50 [5] [µM] | IC50 [8] [nM] | Compound | tumor shrinkage ([6]; all animals treated, 12.5 mg/kg I.P., dose 1 and dose 2 of Table 1C) [%] | ex vivo activity against the tumor cells from frozen bone marrow of the AML patients ([7]; monotherapy) | EC50 ([7]; Homo sapiens, 15 AML ex-vivo bone marrow samples) [nM] | tumor response [6]
1 | 0.41 | 0.9 | 0.13 | 0.13 | 0.13 | – | CCN[C@@H]1C(O)=C(C(N)=O)C(=O)[C@@]2(O)C(O)=C3C(=O)c4c(O)cc([C@@H]5CCCN5CC)c(OC)c4C[C@H]3C[C@@H]12 (single isomer, unassigned) [Compound 4a] | – | – | – | –
2 | 0.37 | 0.75 | 0.1 | 0.11 | 0.12 | 700 | CCN1CCC[C@H]1c1cc(O)c2c(c1OC)C[C@H]1C[C@H]3[C@H](N)C(O)=C(C(N)=O)C(=O)[C@@]3(O)C(O)=C1C2=O [Compound 3a] | ≥ 70 | potent ex vivo activity | 170 | –
3 | 0.51 | 0.64 | 0.17 | 0.16 | 0.13 | – | NC(=O)C1=C(O)[C@@H](N)[C@@H]2C[C@@H]3Cc4c(F)cc(NC(=O)CN5CCCC5)c(O)c4C(=O)C3=C(O)[C@]2(O)C1=O [Compound 5] | – | – | – | –
4 | – | – | – | – | – | – | Nc1ccn([C@@H]2O[C@H](CO)[C@@H](O)[C@@H]2O)c(=O)n1 [Cytarabine] | – | – | – | no tumor response

Row | Compound | IC50 [1] [µM] | IC50 [2] [µM] | IC50 [3] [µM] | IC50 [4] [µM] | IC50 [5] [µM] | IC50 [8] [nM] | tumor shrinkage ([6]; all animals treated, 12.5 mg/kg I.P., dose 1 and dose 2 of Table 1C) [%] | ex vivo activity against the tumor cells from frozen bone marrow of the AML patients ([7]; monotherapy) | EC50 ([7]; Homo sapiens, 15 AML ex-vivo bone marrow samples) [nM] | tumor response [6]
5 | CN(C)c1cc(NC(=O)CNC(C)(C)C)c(O)c2c1C[C@H]1C[C@H]3[C@H](N(C)C)C(O)=C(C(N)=O)C(=O)[C@@]3(O)C(O)=C1C2=O [Tigecycline, tigecycline, reference compound] | 15.4 | 29.1 | 4.64 | 7.2 | 5.1 | – | – | – | – | no tumor response
